Assay results reported in patent US20040152640A1, “Preparation for the prevention and or treatment of altered bone metabolism” (priority 2001, published 2004).

Tested on: mouse bone marrow cells
Test: Alkaline phosphatase (ALP) activity assay in mouse bone marrow cells (marker for osteoblast differentiation)
Assay type: cell-based
Parameters: dose or concentration left out as unconfirmed
Settings: mice bone marrow cells, 3 weeks exposure; with ascorbic acid and β-glycerolphosphate; stimulation more pronounced than genistein
Protocol: Bone marrow cells were isolated from six months old female NMRI mice. After washing, the cells were diluted in phenol red free α-MEM (1% p/s, 15% charcoal treated FCS) and seeded in 24-well plates (1.25*10^6 cells/well). After 24 hours incubation (37° C., 5% CO2) the cells were exposed to the active components (1*10^−5, 1*10^−6 and 1*10^−7 M) together with ascorbic acid (50 μg/ml) and β-glycerolphosphate (1 mM). Exposure media were refreshed every 3 days. After 2 and 3 weeks of incubation, cells were washed with PBS and stored at −20° C. After lysis DNA amounts and alkaline phosphatase activities were determined as described below. The DNA amounts are measured to determine to the number of cells and the alkaline phosphatase activity is used as a marker for osteoblast differentiation. 300 μl lysis buffer (1×SSC/0.01% SDS) was added to the frozen cells. After 1 hour incubation (37° C.) the plates were sonified for 10 minutes and cell suspensions were used for ALP activity measurements. 25 μl cell lysate was transferred in duplicate to 96-well plates. 25 μl of 1*SSC/0.01% SDS served as a negative control. […] ALP activity was measured at a wavelength of 405 nm at room temperature during 10 minutes at 30-second intervals. […] Activity is expressed as nmol p-nitrophenol production/minute/well. (Mean±sem, 2 independent experiments measured in duplicate)

Row | Structure (SMILES) | alkaline phosphatase signal in differentiated osteoblasts
1 | O=c1cc(-c2ccc(O)c(O)c2)oc2cc(O)cc(O)c12 [luteolin] | increased alkaline phosphatase signal
2 | O=c1cc(-c2ccc(O)cc2)oc2cc(O)cc(O)c12 [apigenin] | increased alkaline phosphatase signal
